Measured values published in patent US12343326B2, “Psychoactive medicines and their use for treating psychiatric and neurological conditions and disorders” (Transcend Therapeutics, Inc., priority 2021, dated 2025).
Read-outs that look alike come from different tables or passages of the source.

What was measured:
Assay in all cases: β-arrestin based GPCR screen (PathHunter / GPCRmax), agonist mode
Assay type in all cases: cell-based
Set-up in all cases: host or cells: PathHunter cell lines
168 GPCRs [1] = molecular target: 168 GPCRs (Homo sapiens, UniProt P49190)
Experimental: (§1) For agonist determination, cells were incubated with sample to induce response. […] Vehicle concentration was 1%.

168 GPCRs [2] = molecular target: 168 GPCRs (Homo sapiens, UniProt P30550); conditions: GRPR
Experimental: as §1

168 GPCRs [3] = molecular target: 168 GPCRs (Homo sapiens, UniProt P48039); conditions: MTNR1A
Experimental: as §1

168 GPCRs [4] = molecular target: 168 GPCRs (Homo sapiens, UniProt Q16602); conditions: Agonist
Experimental: as §1

168 GPCRs [5] = molecular target: 168 GPCRs (Homo sapiens, UniProt P08913); conditions: ADRA2A, Agonist
Experimental: as §1

168 GPCRs [6] = molecular target: 168 GPCRs (Homo sapiens, UniProt P50391)
Experimental: as §1

168 GPCRs [7] = molecular target: 168 GPCRs (Homo sapiens, UniProt P08908); conditions: HTR1A
Experimental: as §1

168 GPCRs [8] = molecular target: 168 GPCRs (Homo sapiens, UniProt P25103)
Experimental: as §1

168 GPCRs [9] = molecular target: 168 GPCRs (Homo sapiens, UniProt P47901); conditions: AVPR1B, Agonist
Experimental: as §1

168 GPCRs [10] = molecular target: 168 GPCRs (Homo sapiens, UniProt P30874)
Experimental: as §1

168 GPCRs [11] = molecular target: 168 GPCRs (Homo sapiens, UniProt P51679); conditions: CCR4, Agonist
Experimental: as §1

168 GPCRs [12] = molecular target: 168 GPCRs (Homo sapiens, UniProt Q969F8); conditions: KISS1R
Experimental: as §1

168 GPCRs [13] = molecular target: 168 GPCRs (Homo sapiens, UniProt P41145)
Experimental: as §1

168 GPCRs [14] = molecular target: 168 GPCRs (Homo sapiens, UniProt P51681); conditions: CCR5, CCR5, Agonist
Experimental: as §1

168 GPCRs [15] = molecular target: 168 GPCRs (Homo sapiens, UniProt P34972)
Experimental: as §1

168 GPCRs [16] = molecular target: 168 GPCRs (Homo sapiens, UniProt Q13324)
Experimental: as §1

168 GPCRs [17] = molecular target: 168 GPCRs (Homo sapiens, UniProt P32239); conditions: CCKBR, Agonist
Experimental: as §1

168 GPCRs [18] = molecular target: 168 GPCRs (Homo sapiens, UniProt Q01726); conditions: MC1R
Experimental: as §1

168 GPCRs [19] = molecular target: 168 GPCRs (Homo sapiens, UniProt P49683); conditions: PRLHR
Experimental: as §1

168 GPCRs [20] = molecular target: 168 GPCRs (Homo sapiens, UniProt P14416); conditions: DRD2L
Experimental: as §1

168 GPCRs [21] = molecular target: 168 GPCRs (Homo sapiens, UniProt P07550); conditions: ADRB2, Agonist
Experimental: as §1

168 GPCRs [22] = molecular target: 168 GPCRs (Homo sapiens, UniProt Q15077)
Experimental: as §1

168 GPCRs (Homo sapiens, UniProt Q16602), sequence (Q16602 23-461): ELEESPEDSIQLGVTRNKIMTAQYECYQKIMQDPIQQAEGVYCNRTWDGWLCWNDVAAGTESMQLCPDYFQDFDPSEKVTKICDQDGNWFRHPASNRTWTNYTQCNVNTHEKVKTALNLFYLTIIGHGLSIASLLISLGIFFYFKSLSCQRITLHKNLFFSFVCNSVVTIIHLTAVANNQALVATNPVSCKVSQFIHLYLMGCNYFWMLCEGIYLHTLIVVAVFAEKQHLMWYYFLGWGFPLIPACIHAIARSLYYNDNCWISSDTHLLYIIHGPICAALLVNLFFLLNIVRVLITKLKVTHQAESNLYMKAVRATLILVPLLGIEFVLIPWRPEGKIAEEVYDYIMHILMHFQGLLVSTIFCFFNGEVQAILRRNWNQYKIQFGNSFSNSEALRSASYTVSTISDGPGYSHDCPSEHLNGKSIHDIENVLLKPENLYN
168 GPCRs (Homo sapiens, UniProt P49683), sequence (P49683 whole entry): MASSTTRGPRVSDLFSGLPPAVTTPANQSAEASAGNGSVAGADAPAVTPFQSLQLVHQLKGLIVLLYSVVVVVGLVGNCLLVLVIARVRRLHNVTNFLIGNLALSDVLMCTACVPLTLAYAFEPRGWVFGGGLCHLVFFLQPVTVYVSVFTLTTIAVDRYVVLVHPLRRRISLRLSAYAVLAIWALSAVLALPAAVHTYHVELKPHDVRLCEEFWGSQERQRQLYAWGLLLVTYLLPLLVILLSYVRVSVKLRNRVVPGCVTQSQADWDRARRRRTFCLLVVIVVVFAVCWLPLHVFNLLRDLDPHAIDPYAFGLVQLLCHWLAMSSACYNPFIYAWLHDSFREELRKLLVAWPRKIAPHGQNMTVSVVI
168 GPCRs (Homo sapiens, UniProt P08908), sequence (P08908 whole entry): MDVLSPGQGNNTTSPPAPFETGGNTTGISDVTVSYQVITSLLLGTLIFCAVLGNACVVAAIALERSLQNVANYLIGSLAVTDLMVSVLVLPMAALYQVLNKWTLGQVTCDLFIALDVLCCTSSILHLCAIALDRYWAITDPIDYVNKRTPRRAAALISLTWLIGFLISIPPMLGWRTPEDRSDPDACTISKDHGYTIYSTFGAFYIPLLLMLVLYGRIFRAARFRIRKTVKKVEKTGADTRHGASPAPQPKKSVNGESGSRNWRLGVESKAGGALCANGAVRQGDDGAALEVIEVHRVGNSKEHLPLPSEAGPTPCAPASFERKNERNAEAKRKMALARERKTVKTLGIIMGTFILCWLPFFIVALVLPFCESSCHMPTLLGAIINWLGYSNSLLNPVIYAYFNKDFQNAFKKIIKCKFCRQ
168 GPCRs (Homo sapiens, UniProt P34972), sequence (P34972 whole entry): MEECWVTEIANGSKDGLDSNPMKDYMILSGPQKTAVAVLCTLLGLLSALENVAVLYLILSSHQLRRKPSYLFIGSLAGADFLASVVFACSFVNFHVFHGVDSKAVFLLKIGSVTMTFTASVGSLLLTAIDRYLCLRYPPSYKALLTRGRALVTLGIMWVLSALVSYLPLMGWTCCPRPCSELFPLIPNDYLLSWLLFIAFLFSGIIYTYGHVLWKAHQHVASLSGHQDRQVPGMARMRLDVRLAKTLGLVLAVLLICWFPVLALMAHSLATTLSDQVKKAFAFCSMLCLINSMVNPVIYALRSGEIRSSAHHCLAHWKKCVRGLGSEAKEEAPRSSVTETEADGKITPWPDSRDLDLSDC
168 GPCRs (Homo sapiens, UniProt Q01726), sequence (Q01726 whole entry): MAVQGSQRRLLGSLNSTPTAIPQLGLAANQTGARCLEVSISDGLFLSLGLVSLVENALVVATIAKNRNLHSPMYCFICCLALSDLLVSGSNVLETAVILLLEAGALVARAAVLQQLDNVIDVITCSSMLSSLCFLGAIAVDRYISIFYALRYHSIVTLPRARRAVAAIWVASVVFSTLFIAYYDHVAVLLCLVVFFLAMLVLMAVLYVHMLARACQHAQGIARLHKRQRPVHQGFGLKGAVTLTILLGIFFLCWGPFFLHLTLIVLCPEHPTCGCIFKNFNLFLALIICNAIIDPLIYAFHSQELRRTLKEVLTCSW
168 GPCRs (Homo sapiens, UniProt P51681), sequence (P51681 whole entry): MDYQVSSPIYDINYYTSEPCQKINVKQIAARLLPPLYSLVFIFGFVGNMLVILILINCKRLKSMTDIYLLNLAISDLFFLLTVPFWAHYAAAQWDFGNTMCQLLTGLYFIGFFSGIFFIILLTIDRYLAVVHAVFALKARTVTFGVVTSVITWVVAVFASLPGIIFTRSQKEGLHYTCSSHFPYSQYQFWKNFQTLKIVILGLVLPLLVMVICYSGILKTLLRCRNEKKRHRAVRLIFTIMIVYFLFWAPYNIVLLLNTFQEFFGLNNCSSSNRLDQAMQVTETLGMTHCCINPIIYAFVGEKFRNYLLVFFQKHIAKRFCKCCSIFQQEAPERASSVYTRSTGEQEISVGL
168 GPCRs (Homo sapiens, UniProt P41145), sequence (P41145 whole entry): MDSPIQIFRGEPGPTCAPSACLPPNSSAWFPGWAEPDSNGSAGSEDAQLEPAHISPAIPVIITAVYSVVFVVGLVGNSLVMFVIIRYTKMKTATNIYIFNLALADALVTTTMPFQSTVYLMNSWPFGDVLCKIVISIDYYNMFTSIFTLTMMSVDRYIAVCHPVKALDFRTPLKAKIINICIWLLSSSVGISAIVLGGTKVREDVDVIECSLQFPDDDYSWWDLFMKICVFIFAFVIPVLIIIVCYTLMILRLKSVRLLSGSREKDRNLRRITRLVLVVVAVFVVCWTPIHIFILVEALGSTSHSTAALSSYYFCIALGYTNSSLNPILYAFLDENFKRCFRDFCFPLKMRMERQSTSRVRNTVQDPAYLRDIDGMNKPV
168 GPCRs (Homo sapiens, UniProt P47901), sequence (P47901 whole entry): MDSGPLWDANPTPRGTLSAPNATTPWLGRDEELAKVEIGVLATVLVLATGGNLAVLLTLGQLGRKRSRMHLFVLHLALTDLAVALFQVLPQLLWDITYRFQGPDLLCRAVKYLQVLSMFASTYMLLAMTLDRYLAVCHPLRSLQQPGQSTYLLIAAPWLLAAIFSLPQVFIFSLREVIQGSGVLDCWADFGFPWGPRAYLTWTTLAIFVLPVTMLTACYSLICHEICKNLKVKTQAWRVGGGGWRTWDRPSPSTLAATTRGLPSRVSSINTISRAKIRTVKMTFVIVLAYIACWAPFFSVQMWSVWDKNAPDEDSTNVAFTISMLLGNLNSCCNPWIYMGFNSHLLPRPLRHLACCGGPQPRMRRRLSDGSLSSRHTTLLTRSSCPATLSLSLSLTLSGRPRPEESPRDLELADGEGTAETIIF
168 GPCRs (Homo sapiens, UniProt P48039), sequence (P48039 whole entry): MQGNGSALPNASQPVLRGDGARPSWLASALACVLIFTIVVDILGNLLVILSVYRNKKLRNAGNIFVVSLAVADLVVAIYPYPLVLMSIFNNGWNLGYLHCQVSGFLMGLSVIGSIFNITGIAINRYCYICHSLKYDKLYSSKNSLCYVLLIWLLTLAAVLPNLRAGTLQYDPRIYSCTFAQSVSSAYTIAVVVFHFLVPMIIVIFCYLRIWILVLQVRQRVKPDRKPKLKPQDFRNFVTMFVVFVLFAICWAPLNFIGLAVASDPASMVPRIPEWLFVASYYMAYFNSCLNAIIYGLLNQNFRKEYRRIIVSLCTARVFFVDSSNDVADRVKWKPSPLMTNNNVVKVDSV
168 GPCRs (Homo sapiens, UniProt P08913), sequence (P08913 whole entry): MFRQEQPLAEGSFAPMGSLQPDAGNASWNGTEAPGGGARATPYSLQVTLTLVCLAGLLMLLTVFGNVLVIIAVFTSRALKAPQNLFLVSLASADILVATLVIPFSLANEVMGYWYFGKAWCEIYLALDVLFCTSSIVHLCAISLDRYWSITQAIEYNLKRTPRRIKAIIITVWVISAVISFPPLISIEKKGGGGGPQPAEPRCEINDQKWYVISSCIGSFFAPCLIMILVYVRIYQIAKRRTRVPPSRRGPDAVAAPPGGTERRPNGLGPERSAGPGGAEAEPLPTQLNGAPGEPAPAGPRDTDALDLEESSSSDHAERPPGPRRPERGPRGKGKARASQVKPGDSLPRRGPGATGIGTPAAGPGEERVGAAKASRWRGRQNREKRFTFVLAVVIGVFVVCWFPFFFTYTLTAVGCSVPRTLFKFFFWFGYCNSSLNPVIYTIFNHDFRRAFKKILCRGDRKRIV
168 GPCRs (Homo sapiens, UniProt P49190), sequence (P49190 25-550): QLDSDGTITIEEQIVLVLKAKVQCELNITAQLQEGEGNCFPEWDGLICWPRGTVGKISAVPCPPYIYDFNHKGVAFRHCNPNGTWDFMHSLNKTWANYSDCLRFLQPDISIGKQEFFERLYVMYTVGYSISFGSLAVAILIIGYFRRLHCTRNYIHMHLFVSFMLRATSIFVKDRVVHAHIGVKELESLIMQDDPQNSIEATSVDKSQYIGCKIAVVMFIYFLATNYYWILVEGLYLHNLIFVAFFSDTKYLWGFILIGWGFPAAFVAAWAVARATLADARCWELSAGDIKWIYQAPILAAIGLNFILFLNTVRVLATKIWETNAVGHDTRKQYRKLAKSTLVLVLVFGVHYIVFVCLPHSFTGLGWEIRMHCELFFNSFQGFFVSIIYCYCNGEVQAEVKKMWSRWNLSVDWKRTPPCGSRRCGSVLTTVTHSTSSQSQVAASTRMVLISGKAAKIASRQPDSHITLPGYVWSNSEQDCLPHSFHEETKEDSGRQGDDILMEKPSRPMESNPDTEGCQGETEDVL
168 GPCRs (Homo sapiens, UniProt P32239), sequence (P32239 whole entry): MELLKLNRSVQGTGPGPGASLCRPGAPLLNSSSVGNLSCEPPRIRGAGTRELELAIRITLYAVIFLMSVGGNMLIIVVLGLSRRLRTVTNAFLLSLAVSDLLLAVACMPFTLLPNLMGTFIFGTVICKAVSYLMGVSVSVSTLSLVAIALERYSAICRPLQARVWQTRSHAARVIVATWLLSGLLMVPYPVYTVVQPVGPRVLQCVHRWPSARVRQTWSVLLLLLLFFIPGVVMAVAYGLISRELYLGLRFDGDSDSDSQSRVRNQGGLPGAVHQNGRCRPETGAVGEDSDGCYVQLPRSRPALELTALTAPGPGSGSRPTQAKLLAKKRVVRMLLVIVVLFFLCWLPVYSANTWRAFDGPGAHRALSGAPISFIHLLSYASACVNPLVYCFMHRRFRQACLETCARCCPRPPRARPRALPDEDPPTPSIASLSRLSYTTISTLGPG

CNC(C)C(=O)c1ccc2c(c1)OCO2 (stereo not drawn) [methylone, 3,4-methylenedioxy-N-methylcathinone]
activity at 10 µM (168 GPCRs [1]; PTHR2, Agonist mode, 10 uM): -0.5%
activity at 1 µM (168 GPCRs [1]; PTHR2, Agonist, 1 uM): -0.6%
activity at 10 µM (168 GPCRs [2]; Agonist mode, 10 uM): -0.1%
activity at 1 µM (168 GPCRs [2]; Agonist, 1 uM): 0%
activity at 10 µM (168 GPCRs [3]; Agonist mode, 10 uM): -11.7%
activity at 1 µM (168 GPCRs [3]; Agonist, 1 uM): -12.3%
activity at 1 µM (168 GPCRs [4]; CALCRL-RAMP1, read-out: % Activity): -2.6%
activity at 10 µM (168 GPCRs [4]; CALCRL-RAMP1): -0.2%
activity at 1 µM (168 GPCRs [4]; CALCRL-RAMP2): 0.1%
activity at 10 µM (168 GPCRs [4]; CALCRL-RAMP2): 2.8%
activity at 1 µM (168 GPCRs [4]; CALCRL-RAMP3, read-out: % Activity): -2.2%
activity at 10 µM (168 GPCRs [4]; CALCRL-RAMP3): 2.2%
activity at 1 µM (168 GPCRs [5]; 1 uM): -3.8%
activity at 10 µM (168 GPCRs [5]; 10 uM): -3.8%
activity at 10 µM (168 GPCRs [6]; PPYR1, Agonist mode, 10 uM): -1.2%
activity at 1 µM (168 GPCRs [6]; PPYR1, Agonist, 1 uM): -1.7%
activity at 10 µM (168 GPCRs [7]; Agonist mode, 10 uM): -0.1%
activity at 1 µM (168 GPCRs [7]; Agonist, 1 uM): 0.8%
activity at 10 µM (168 GPCRs [8]; TACR1, Agonist mode, 10 uM): -4.4%
activity at 1 µM (168 GPCRs [8]; TACR1, Agonist, 1 uM): -3.9%
activity at 1 µM (168 GPCRs [9]; 1 uM): -1.2%
activity at 10 µM (168 GPCRs [9]; 10 uM): -1.1%
activity at 10 µM (168 GPCRs [10]; SSTR2, Agonist mode, 10 uM): 0.7%
activity at 1 µM (168 GPCRs [10]; SSTR2, Agonist, 1 uM): 0%
activity at 1 µM (168 GPCRs [11]; 1 uM): -0.5%
activity at 10 µM (168 GPCRs [11]; 10 uM): 1.4%
activity at 10 µM (168 GPCRs [12]; Agonist mode, 10 uM): -3.7%
activity at 1 µM (168 GPCRs [12]; Agonist, 1 uM): -5.5%
activity at 10 µM (168 GPCRs [13]; OPRK1, Agonist mode, 10 uM): -4.1%
activity at 1 µM (168 GPCRs [13]; OPRK1, Agonist, 1 uM): -6.3%
activity at 1 µM (168 GPCRs [14]; 1 uM): -0.1%
activity at 10 µM (168 GPCRs [14]; 10 uM): 0.3%
activity at 10 µM (168 GPCRs [15]; CNR2, Agonist mode, 10 uM): 3.2%
activity at 1 µM (168 GPCRs [15]; CNR2, Agonist, 1 uM): 7%
activity at 10 µM (168 GPCRs [16]; CRHR2, Agonist mode, 10 uM): 0.9%
activity at 1 µM (168 GPCRs [16]; CRHR2, Agonist, 1 uM): 0.9%
activity at 1 µM (168 GPCRs [17]; 1 uM): -1%
activity at 10 µM (168 GPCRs [17]; 10 uM): 1.5%
activity at 10 µM (168 GPCRs [18]; Agonist mode, 10 uM): -4.4%
activity at 1 µM (168 GPCRs [18]; Agonist, 1 uM): -2.6%
activity at 10 µM (168 GPCRs [19]; Agonist mode, 10 uM): -0.2%
activity at 1 µM (168 GPCRs [19]; Agonist, 1 uM): -2.2%
activity at 10 µM (168 GPCRs [20]; Agonist mode, 10 uM): 0.7%
activity at 1 µM (168 GPCRs [20]; Agonist, 1 uM): 0.1%
activity at 1 µM (168 GPCRs [21]; 1 uM): 0%
activity at 10 µM (168 GPCRs [21]; 10 uM): -0.2%
activity at 10 µM (168 GPCRs [22]; P2RY6, Agonist mode, 10 uM): 2.4%
activity at 1 µM (168 GPCRs [22]; P2RY6, Agonist, 1 uM): 4.5%
